# Reference: patent publication US20080317857A1, “V-Atpase Inhibitors of Use in the Treatment of Septic Shock” (Brane Discovery S.r.l., priority 2005, published 2008)
# Tests used:
# PMNs = test: Chemoattractant-induced rapid adhesion of PMNs to fibrinogen (CR3 ligand); type: cell-based; conditions: Homo sapiens
# Protocol: (§1) Adhesion was performed on purified integrin ligands and was evaluated as reported in Constantin G. et al., Immunity, 16, 759-769, 2000. Briefly, primary naïve lymphocytes, polymorphonuclear neutrophils (PMNs) or monocytes were isolated form healthy donors. In other experiments, murine autoreactive T cells were obtained from SJL mice immunized with PLP139-151 as described (Piccio L. et al., J. Immunol. 168, 1940-1949, 2002). Cells were resuspended at 4×10^6/ml in PBS, CaCl2, MgCl2 1 mM, 10% FCS, pH 7.2. Adhesion assays were performed on eighteen well glass slides coated overnight at 4° C. with ligands for CR3 (fibrinogen) or LFA-1 (ICAM-1). 20 μl of cell suspension were added to the wells and stimulated at 37° C. with 5 μl of agonists prior to washing, fixation and computer-assisted enumeration of bound cells.
# (§2) Integrin activation was measured as induction of rapid adhesion triggered by the classical chemoattractant N-formyl-L-methionyl-L-leucyl-phenylalanine (fMLP) (100 nM) or by the CC chemokine MIP3β (CCL19, 1 μM). PMNs and monocytes were triggered to adhere to fibrinogen (CR3 ligand); naive human lymphocytes or murine encephalitogenic T cells were triggered to adhere to ICAM-1 (LFA-1 ligand). Triggered adhesion was evaluated after 2 min of stimulation under static conditions. The cells were pretreated at 37° C. for 30-60 min with the indicated concentrations of the test compound. Results are expressed as percentage of inhibition over control (=100%) and are the mean of three experiments in the case of human leukocytes. Results are expressed as mean counts and are the mean counts±S.D of three experiments and are the mean of three experiments in the case of murine encephalitogenic lymphocytes.
# (§3) Integrin activation was measured as induction of rapid adhesion triggered by the “classical” chemoattractant fMLP (100 nM) or by the CC chemokine MIP3β(CCL19, 1 μM). PMNs were triggered to adhere to fibrinogen (CR3 ligand); lymphocytes were triggered to adhere to ICAM-1 (LFA-1 ligand).
# Lymphocytes = test: Chemokine-induced rapid adhesion of lymphocytes to ICAM-1 (LFA-1 ligand); type: cell-based; conditions: Homo sapiens, Lymphocyte
# Protocol: as §1, §2, §3
# [1] = test system: murine encephalitogenic T lymphocytes in inflamed brain venules; test: Intravital microscopy: lymphocyte recruitment in inflamed brain microcirculation; type: in vivo, mice (SJL); conditions: cells treated with 50 μM for 1 h
# Protocol: Murine encephalitogenic T lymphocytes were labeled with either green CMFDA (5-chloromethylfluorescein diacetate; Molecular Probes) or orange CMTMR (5-(and-6)-(((4-chloromethyl)benzoyl)amino)tetramethylrhodamine) (Molecular Probes). SJL young females (Harlan-Nossan, Udine, Italy) were housed and used according to current European Community rules. In order to inflame brain endothelium, mice were injected intraperitoneally with 12 μg lipopolysaccharide (LPS) (Escherichia coli 026:B6; Sigma) 5 to 6 hours before the intravital experiment was started. […] Fluorescence-labeled cells (2×10^6)/condition were slowly injected into the carotid artery through a digital pump. Images were visualized by using a silicon-intensified target videocamera (VE-1000 SIT; Dage MTI, Michigan City, Ind.) and a Sony SSM-125CE monitor and were recorded using a digital videocassette recorder (NV-DV10000; Panasonic).
# Video analysis was performed by playback of digital videotapes. Vessel diameter (D), hemodynamic parameters, and the velocities of rolling were determined by using a personal computer-based system. The velocities of 20 or more consecutive freely flowing cells per venule were calculated.
# From the velocity of the fastest cell in each venule (Vfast), we calculated the mean blood flow velocities (Vm): […]. […]
smiles,measurement,setting,value
COC(=O)c1[nH]c2cc(OC)c(OC)cc2c1-c1ccc(OC)cc1 [Example 1],inhibition at 2.5 µM,"PMNs; [cpd] 2.5 μM, read-out: Inhibition of Adhesion (%) PMNs (fMLP)",9.4%
same,inhibition at 5 µM,"PMNs; [cpd] 5 μM, read-out: Inhibition of Adhesion (%) PMNs (fMLP) (converted)",56.1%
same,inhibition at 10 µM,"PMNs; [cpd] 10 μM, read-out: Inhibition of Adhesion (%) PMNs (fMLP) (converted)",66.7%
same,inhibition at 25 µM,"PMNs; [cpd] 25 μM, read-out: Inhibition of Adhesion (%) PMNs (fMLP) (converted)",72.9%
same,inhibition at 50 µM,"PMNs; [cpd] 50 μM, read-out: Inhibition of Adhesion (%) PMNs (fMLP) (converted)",79%
same,inhibition at 100 µM,"PMNs; [cpd] 100 μM, read-out: Inhibition of Adhesion (%) PMNs (fMLP) (converted)",94.2%
same,inhibition at 2.5 µM,"Lymphocytes; [cpd] 2.5 μM, read-out: Inhibition of Adhesion (%) Lymphocytes (MIP3-β)",32.4%
same,inhibition at 5 µM,"Lymphocytes; [cpd] 5 μM, read-out: Inhibition of Adhesion (%) Lymphocytes (MIP3-β) (converted)",41.2%
same,inhibition at 10 µM,"Lymphocytes; [cpd] 10 μM, read-out: Inhibition of Adhesion (%) Lymphocytes (MIP3-β) (converted)",42.6%
same,inhibition at 25 µM,"Lymphocytes; [cpd] 25 μM, read-out: Inhibition of Adhesion (%) Lymphocytes (MIP3-β) (converted)",60.8%
same,inhibition at 50 µM,"Lymphocytes; [cpd] 50 μM, read-out: Inhibition of Adhesion (%) Lymphocytes (MIP3-β) (converted)",61.8%
same,inhibition at 100 µM,"Lymphocytes; [cpd] 100 μM, read-out: Inhibition of Adhesion (%) Lymphocytes (MIP3-β) (converted)",98.6%
same,autoreactive lymphocyte rolling,[1],no effect
same,sticking/firm arrest,[1],highly blocked
